Experimental data from paper PMC12030534, “Population Pharmacokinetic Modeling of Total and Unbound Pamiparib in Glioblastoma Patients: Insights into Drug Disposition and Dosing Optimization” (Pharmaceutics, 2025).
Values joined by “and” are separate entries in the source; they are usually repeats but may differ in a detail not shown here. Equal entries are not always repeated. Where two headings read alike, the source gives them in different places. Marks after values point to notes of the source that are not given here.

Key:
[1] = test system: SCLC PDX models; set-up: method as in PMID 29330466; conditions: imaging, cited from earlier work
[2] = set-up: method as in PMID 33876576; conditions: cited from earlier work
[3] = Population PK model of total and unbound pamiparib plasma concentrations in glioblastoma patients (Monolix; bootstrap evaluation); assay type: in vivo, human; set-up: Ka_SD: unit not given here; conditions: for fraction unbound: oral, 60 mg, read-out: θ4 (Fu); for IIV of CL/F / IIV of Ka / IIV of V/F: (% RSE)
Protocol: The total and unbound pamiparib plasma concentration data used in the population PK analysis were obtained from a phase 0/II study (ClinicalTrials.gov ID: NCT04614909), which enrolled 41 patients with newly diagnosed or recurrent glioblastoma. The protocols were approved by the Institutional Review Board of the Barrow Neurological Institute. Written informed consent was obtained from all participants.
The patients received oral pamiparib (60 mg twice daily) for three days before undergoing surgical tumor resection. Blood samples were collected at predose and at 0.5, 1, 2, 4, 7, and 24 h following the 9th oral dose. Plasma was separated from whole blood by centrifugation at 1000× g and 4 °C for 10 min and then stored at −80 °C until analysis. The total and unbound pamiparib concentrations in plasma samples were quantified using a validated liquid chromatography coupled with tandem mass spectrometry (LC-MS/MS) method.
The population PK model was developed in two steps: (1) basic (structural) model development and (2) covariate model development. All analyses were performed using the nonlinear mixed-effects modeling program MONOLIX version 2024R1 (Lixoft, Antony, France).
The structural model was developed to simultaneously characterize total and unbound pamiparib plasma concentration–time profiles following an oral administration of 9 doses (60 mg, twice daily) in individual glioblastoma patients. A one-compartment model with first-order absorption (without lag time) and first-order elimination was selected to describe the multiple-dose plasma concentration–time data. The primary PK parameters included apparent oral clearance (CL/F), apparent volume of distribution (V/F), absorption rate constant (Ka), and fraction of unbound drug in plasma (Fu). The relationship between total (Cp) and unbound (Cu) drug concentrations was incorporated into the model using the equation Cu = Cp × Fu. All concentration data were log-transformed to stabilize variance and improve model fitting. Population mean PK parameters, interindividual variability, and residual error were assessed in the population PK model. Interindividual variability was modeled using an exponential function, assuming log-normal distribution for all PK parameters.
Various residual error models, including constant, proportional, and combined error models, were evaluated. The combined model, incorporating both proportional and additive error components, was selected as the optimal error model (Equation (1)).(1) yi,j=fti,j,ψi+g(ti,j,ψi,ξ)εi,j Here, ψi is the parameter vector of the structural model f for individual i , and the residual error model is defined by the function g that depends on an additional parameter vector ξ . The residual errors εi,j are standardized Gaussian random variables with a mean of 0 and a standard deviation of 1. In this analysis, the combined error model was defined as g=a+bf^c , where the function g consists of a constant term, a, and a term proportional to the structural model f , with b as the proportionality constant. The parameter vector ξ includes a and b, while c is fixed at 1 by default.
Population mean PK parameters were estimated using the Stochastic Approximation Expectation–Maximization (SAEM) algorithm, a robust method for handling complex nonlinear mixed-effects models. Individual patients’ PK parameter estimates were obtained through post hoc Bayesian estimation, utilizing the conditional distributions derived from the Markov Chain Monte Carlo (MCMC) procedure.
The covariate model was developed using a stepwise approach to systematically identify and incorporate significant covariate effects. Initial screening for potential covariates was conducted using generalized additive modeling (GAM) with R version 4.4.1. The candidate covariates, listed in Table 1, were evaluated based on their relationship with Bayesian-estimated individual pharmacokinetic (PK) parameters from the structural model, including CL/F, V/F, Ka, and Fu. […]

[4] = test system: PARP; set-up: method as in PMID 33264017; conditions: used as denominator of target engagement ratio; read-out: IC50 for PARP inhibition; cited from earlier work
[5] = test system: PARP; set-up: method as in PMID 23118055; conditions: cited from earlier work
[6] = test system: P-glycoprotein (P-gp); set-up: method as in PMID 32652442, PMID 39575553; conditions: cited from earlier work
[7] = test system: ABCG2; set-up: method as in PMID 32652442, PMID 39575553; conditions: cited from earlier work
[8] = cited from earlier work
[9] = human liver microsomes; cited from earlier work
[10] = cited from earlier work; remark: listed apart in the source
[11] = total pamiparib, base model, 60 mg twice daily oral
[12] = total pamiparib, base model, population mean (% RSE)
[13] = total pamiparib, bootstrap mean
[14] = total pamiparib, final covariate model
[15] = total pamiparib, final covariate model, population mean
[16] = total pamiparib, final covariate model, population mean (% RSE in Table 2)
[17] = unbound pamiparib, base model, population mean (% RSE)
[18] = unbound pamiparib, bootstrap mean
[19] = unbound pamiparib, final covariate model
[20] = unbound pamiparib, final covariate model, population mean
[21] = unbound pamiparib, final covariate model, population mean (% RSE in Table 2)

O=C(c1cc(Cc2n[nH]c(=O)c3ccccc23)ccc1F)N1CCN(C(=O)C2CC2)CC1 [olaparib]
dose for complete target engagement ([1]; ~5-fold of ED50): 15 mg/kg | dose for 50% target engagement (ED50) [1]: 3.17 mg/kg

oxy-dehydro pamiparib [M3]
metabolite abundance ([2]; human plasma, urine, and feces): most abundant metabolite

C[C@]12CCCN1CC1=NNC(=O)c3cc(F)cc4[nH]c2c1c34 [pamiparib]
fraction unbound ([3]; human, plasma, total pamiparib, base model, population mean (% RSE)): 0.042 | fraction unbound ([3]; human, plasma, total pamiparib, bootstrap mean): 0.041 | fraction unbound ([3]; human, plasma, total pamiparib, final covariate model, population mean (% RSE in Table 2)): 0.041 | fraction unbound ([3]; human, plasma, unbound pamiparib, base model, population mean (% RSE)): 0.042 | fraction unbound ([3]; human, plasma, unbound pamiparib, bootstrap mean): 0.041 | fraction unbound ([3]; human, plasma, unbound pamiparib, final covariate model, population mean (% RSE in Table 2)): 0.042 | half-life ([3]; human, plasma, glioblastoma patients, 60 mg twice daily oral, read-out: population mean elimination half-life (T1/2) (converted)): ~12 h | TV_CL/F [3, 11]: 2.73 L/h | TV_V/F [3, 11]: 44 L | TV_KA ([3]; total pamiparib, base model, 60 mg twice daily oral, glioblastoma patients): 1.64 h⁻¹ | IIV of CL/F ([3]; total pamiparib, base model): 53 (11) % | IIV of Ka ([3]; total pamiparib, base model): 397 (18) % | IIV of V/F ([3]; total pamiparib, base model): 53 (16) % | TV_Fu ([3]; total pamiparib, base model, fraction unbound in plasma): 0.042 | θ1 (Ka) [3, 12]: 1.64 (42) h^−1 | θ2 (V/F) [3, 12]: 44 (9.7) L | θ3 (CL/F) [3, 12]: 2.73 (8.0) L/h | Fu_SD [3, 13]: 0.11 | Ka_SD [3, 13]: 1.6 | V/F_SD [3, 13]: 0.35 | β1 (PCC) [3, 13]: 0.0089 | β2 (Age) [3, 13]: −0.017 | θ2 (V/F) [3, 13]: 17 L | θ1 (Ka) ([3]; total pamiparib, bootstrap mean (500 replicates)): 1.71 h⁻¹ | TV_KA ([3]; total pamiparib, final covariate model, 60 mg twice daily oral): 1.58 h⁻¹ | IIV of CL/F [3, 14]: 50% and 50 (11) % | IIV of Ka [3, 14]: 410 (20) % | IIV of V/F [3, 14]: 41 (17) % | TV_V/F ([3]; total pamiparib, final covariate model, at median PCC 111.5): 44 L and 44 ^† L | TV_CL/F ([3]; total pamiparib, final covariate model, at median age 60): 2.59 L/h and 2.59 ^‡ L/h | TV_Fu ([3]; total pamiparib, final covariate model, fraction unbound in plasma): 0.041 | Fu_SD [3, 15]: 0.12 | Ka_SD [3, 15]: 1.7 | V/F_SD [3, 15]: 0.39 | θ1 (Ka) [3, 16]: 1.58 (42) h^−1 and 1.58 h^−1 | θ2 (V/F) [3, 16]: 15 (28) L and 15 L | TV_CL/F ([3]; unbound pamiparib, base model): 65.0 L/h | TV_Fu ([3]; unbound pamiparib, base model): 0.042 | TV_V/F ([3]; unbound pamiparib, base model): 1017 L | TV_KA ([3]; unbound pamiparib, base model, 60 mg twice daily oral): 1.55 h⁻¹ | IIV of CL/F ([3]; unbound pamiparib, base model): 54 (11) % | IIV of Ka ([3]; unbound pamiparib, base model): 612 (21) % | IIV of V/F ([3]; unbound pamiparib, base model): 50 (17) % | θ1 (Ka) [3, 17]: 1.55 (51) h^−1 | θ2 (V/F) [3, 17]: 1017 (9.1) L | θ3 (CL/F) [3, 17]: 65.0 (8.2) L/h | Fu_SD [3, 18]: 0.11 | Ka_SD [3, 18]: 1.66 | V/F_SD [3, 18]: 0.35 | β1 (PCC) [3, 18]: 0.0083 | β2 (Age) [3, 18]: −0.016 | θ2 (V/F) [3, 18]: 441 L | θ1 (Ka) ([3]; unbound pamiparib, bootstrap mean (500 replicates)): 1.86 h⁻¹ | TV_Fu [3, 19]: 0.042 | TV_KA [3, 19]: 1.7 h⁻¹ | IIV of CL/F [3, 19]: 52(11) % | IIV of Ka [3, 19]: 380 (20) % | IIV of V/F [3, 19]: 41 (19) % | TV_V/F ([3]; unbound pamiparib, final covariate model, at median PCC 111.5): 1060 ^† L | TV_CL/F ([3]; unbound pamiparib, final covariate model, at median age 60): 62.5 ^‡ L/h | Fu_SD [3, 20]: 0.11 | Ka_SD [3, 20]: 1.66 | V/F_SD [3, 20]: 0.39 | θ1 (Ka) [3, 21]: 1.7 (44) h^−1 and 1.7 h^−1 | θ2 (V/F) [3, 21]: 402 (28) L and 402 L | IC50 [4]: ~1 nM and 1 nM | PARP trapping potency ([5]; compared with other PARP inhibitors): surpassing olaparib and rucaparib but slightly weaker than niraparib and much weaker than talazoparib | substrate of P-glycoprotein (P-gp) / ABCB1 [6]: not a substrate | substrate of efflux transporter ABCG2 [7]: not a substrate | LogP [8]: 2.03 | intrinsic clearance [9]: low | fecal excretion, share of total radioactivity ([2]; pamiparib and its metabolites): ~27% | renal excretion, share of total radioactivity ([2]; pamiparib and its metabolites): approximately 58% | unchanged pamiparib as share of total radioactivity in plasma ([2]; patients with solid tumors): 67% | maximum tolerated dose in monotherapy [10]: 60 mg BID | T1/2 ([10]; first in-human study BGB-290-AU-002): 13 h

Cn1ncnc1[C@H]1c2n[nH]c(=O)c3cc(F)cc(c23)N[C@@H]1c1ccc(F)cc1 [talazoparib]
PARP trapping potency relative to olaparib [5]: ~ 100 fold
